This note sets out measurements from publication PMC13327620, “A Deep‐Red‐Absorbing Osmium(II) Complex as a Photosensitizer for Photodynamic Therapy Inducing Immunogenic Cell Death” (Angewandte Chemie (International Ed. in English), 2026).

For experiment [1], the system named is human fibroblast cells (MRC-5). Put plainly: Resazurin cell viability assay, dark toxicity. The settings on record: MRC5, MRC-5, dark. The format is cell-based. Here is the method: (§1) (100 U ml−1), streptomycin (100 U ml−1), and 1% L-glutamine. The murine fibrosarcom a (MCA205) cells were cultured in RPMI 1640 medium with 10% fetal bovine serum (FBS), penicillin (100 U ml−1), streptomycin (100 U ml−1), and 1% L-glutamine. All cells were incubated at 37 °C in a humidified atmosphere with 5 % CO2.
(§2) Normoxia. The in vitro viability of cells exposed to the complexes was determined using a resazurin assay. C ells were seeded in 96-well plates at densities of 4,000 cells/well for CT26, MC A205 and U-87 MG cells, and 8,000 cells/well for MRC-5 and NIH/3T3 cells. A fter 24 h of growth at 37 °C wit h 5% CO2, the medium was replaced with fresh medium containing various concentrations of the compounds . Following a 4- h incubation in the dark, the medium was refres hed , and the plates were exposed to irradiation usinga LUM OS -BIO photoreactor (At las Photonics).N on- ir rad iated plates were similarly refr eshed with medium and kept in the dark for the same duration. After a 40- h r ecov ery period, a f reshly pr epar ed resazurin solution (0.2 mg/mL) was added to each well, and the plates were left in the dark for 4 h before analysis on a B i o Te k Cytation 5 Cell Imaging Multimode Reader (Agil ent Technologies).
(§3) Hypoxia.Hypoxia cells were from well -grown normoxia cells and cultured for at least two weeks before use. […]
Background: Resazurin is reduced to fluorescent resorufin, in cell work by metabolically active cells.

The test system of experiment [2] is mouse fibroblast cells (NIH/3T3). The experiment in a line: Resazurin cell viability assay, dark toxicity. The settings on record: NIH3T3, NIH/3T3, dark. The format is cell-based. Here is the method:
as §1, §2, §3

Another experiment concerns MCA205 cells. The experiment in a line: In vivo vaccination and rechallenge, MCA205 model. On the set-up: species or system C57BL/6 mice. The settings on record: vaccination with MCA205 cells pre-treated with 500 µM Cisplatin or 1400 µM Oxaliplatin (dark), 5.5 µM Ce6 or 3 µM Os2 (740 nm). The text has this: Next, we used these concentrations in the MCA205 vaccination and rechallenge model on C57BL/6 mice to test the in vivo ICD effect of Os2, following the same experimental procedure as that used for CT26‐luc cells in Figure 5A. […] Body weights remained stable across all groups throughout the study, further supporting the good in vivo biosafety of Os2.
(§4) The BALB/c female mice were randomly divided into 4 groups with each group containing 5 mice, which were named as Control group, Cisplatin group, Ce6 group and Os2 group. CT26-luc cells wer e treat ed in vitro with 600 µM Cisplatin in the dark, 6.5 µM Ce6 or 1.8 µM Os2 upon 740 nm LED light irradiation (60 min, 12.6 J cm-2) following the methods described above. Subsequently, treated CT26-luc cells (3×10^5 cells in 100 µ L sterile PBS) or 100 µ L sterile PB S were injected subcutaneously into the left flank of each mouse. One week later, mice were r echalleng ed by injection with untreated CT26- luc cells (1×10^6 cells in 100 µL sterile PBS). The mice were monitored by an in vivo imaging system (Biospace Lab, Photon Imager Optima) and the tumor volume was calculated with the following equation: tumor volume = width 2 × length × […]
(§5) In vivo vaccination study on MCA205 cells
The C57BL/6 mice were randomly divided into 5 groups with each group containing 10 mice, whi ch w ere nam ed as Control group, Cisplatin group, Oxaliplatin group, Ce6 group and Os2 group. M CA205 cells were treated in vitro with 500 µM Cisplatin o r 1400 µM Oxaliplatin in the dark, 5.5 µM Ce6 or 3 µM Os2 upon 740 nm LED light irradiation (60 min, 12.6 J cm-2) following the methods described above. Subsequently, treated MCA205 cells (3 ×10^5 cells in 100 µ L sterile PBS) or 100 µ L sterile PBS were injected subcutaneously into the left flank of each mouse. One week later, mice were rechallenged by injection with untreated MCA205 cells (1×10^6 cells in 100 µ L sterile PBS). The tumor volume was calculated with the following equation: tumor volume =

A further experiment relates to CT26‐luc cells. Put plainly: In vivo vaccination and rechallenge, CT26-luc model. On the set-up: species or system BALB/c mice. Here is the method:
The ability to stimulate ICD in vivo was evaluated using a CT26‐luc vaccination and rechallenge model, following the gold‐standard method (Figure 5A). The mice were randomly assigned to groups and injected subcutaneously on the left flank with PBS solution, CT26‐luc cells pre‐treated with either 600 µM Cisplatin in the dark, 6.5 µM Ce6, or 1.8 µM Os2 upon 740 nm LED light irradiation (60 min, 12.6 J cm^−2). After 7 days, all the mice were rechallenged by subcutaneous injection of untreated live CT26‐luc cells on the right flank. […] However, by day 15, tumors in the PBS‐treated (control) group grew rapidly, reaching an average tumor volume of 717 ± 190 mm^3.
as §4, §5
The C57BL/6 mice were randomly divided into 5 groups with each group containing 10 mice, whi ch w ere nam ed as Control group, Cisplatin group, Oxaliplatin group, Ce6 group and Os2 group. M CA205 cells were treated in vitro with 500 µM Cisplatin o r 1400 µM Oxaliplatin in the dark, 5.5 µM Ce6 or 3 µM Os2 upon 740 nm LED light irradiation (60 min, 12.6 J cm-2) following the methods described above. […] The tumor volume was calculated with the following equation: tumor volume =

Bounds are passed on as bounds.

On to `C=Cc1c(C)c2cc3nc(c(CC(=O)O)c4[nH]c(cc5nc(cc1[nH]2)C(C)=C5CC)c(C)c4C(=O)O)[C@@H](CCC(=O)O)[C@@H]3C` [Ce6, chlorin e6], for which the 50% inhibitory concentration (IC50) in experiment [1] and in experiment [2] was > 100 µM throughout. In the experiment on MCA205 cells, the Tumor growth entry was “partial suppression”. Further, in the experiment with CT26‐luc cells (by day 40, n = 5 per group), the “Mice with tumors completely ablated” value was “one mouse”. In addition, the “Tumor volume, times smaller than control group” value in the experiment with CT26‐luc cells (day 15 after rechallenge, vaccination with CT26‐luc cells pre-treated with 6.5 µM Ce6 or 1.8 µM Os2 + 740 nm) stood at 1.7. For the same compound, the Survival entry in the experiment on CT26‐luc cells (up to 40 days after rechallenge, compared to the other groups) is recorded as “prolonged survival periods”.

As usually defined, the IC50 is the midpoint of a concentration-inhibition curve. A low value points to greater potency.
